Experimental data from paper PMC5042873 (Journal of the American Chemical Society, 2016).

How the values were obtained:
[1] = system: GLUT1 transporters; details: cited from earlier work
[2] = system: GLUT1 expressing breast cancer (G1fpt); assay: In vivo antitumor efficacy, GLUT1 expressing breast cancer syngeneic model; design: species or system Balb/c mice; details: 5 mg/kg i.v. bolus, four treatments once every other day, 30 days
[3] = In vivo toxicity by body weight and general behavior; design: species or system Balb/c mice; details: 5 mg/kg, 4X in 8 days

Row | SMILES | affinity for GLUT1 transporters relative to D-glucose [1] [fold] | antitumor efficacy (tumor volume) [2] | tumors smaller compared to tumors in the PBS treated control group [2] [times] | body weight [3]
1 | O=[N+]([O-])c1ccc(NCC2OC(O)C(O)C(O)[C@@H]2O)c2nonc12 (stereo partly shown) [6-NBDG] | 300 | – | – | –
2 | O=C1[O][Pt]2([NH][C@@H]3CCCC[C@H]3[NH]2)[O]C1=O [oxaliplatin] | – | no statistically significant difference compared to the Glc-Pt 2 treated group | 10 | reduced after the second dose but recovered to normal values
